Reference: the supplement of paper PMC10307832

Columns and labels:
Assay in all cases: relative viability (nuclei count vs DMSO), 5 days (fraction); higher = more cells survive
LOU-NH91 = tested on: LOU-NH91
Outline: (§1)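 Relative viability equals treated-well nuclei counts divided by vehicle-well nuclei counts. Counts came from 4× images of lung cancer cell lines grown in 1536-well plates for 5 days after pin-tool dosing on the day after seeding. Dosing used one drug alone or a fixed anchor-drug dose plus five library-drug doses (not always all listed) in √10 steps, and values are medians of duplicate plates.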

ABC-1 = tested on: ABC-1
Outline: as §1

NCI-H2170 = tested on: NCI-H2170
Outline: as §1

NCI-H2085 = tested on: NCI-H2085
Outline: as §1

NCI-H2023 = tested on: NCI-H2023
Outline: as §1

LCLC-97TM1 = tested on: LCLC-97TM1
Outline: as §1

NCI-H23 = tested on: NCI-H23
Outline: as §1

NCI-H2342 = tested on: NCI-H2342
Outline: as §1

NCI-H2009 = tested on: NCI-H2009
Outline: as §1

NCI-H1437 = tested on: NCI-H1437
Outline: as §1

ChaGo-K-1 = tested on: ChaGo-K-1
Outline: as §1

NCI-H1623 = tested on: NCI-H1623
Outline: as §1

NCI-H2405 = tested on: NCI-H2405
Outline: as §1

UMC-11 = tested on: UMC-11
Outline: as §1

RERF-LC-KJ = tested on: RERF-LC-KJ
Outline: as §1

HOP-62 = tested on: HOP-62
Outline: as §1

NCI-H322M = tested on: NCI-H322M
Outline: as §1

NCI-H1792 = tested on: NCI-H1792
Outline: as §1

SK-MES-1 = tested on: SK-MES-1
Outline: as §1

HCC-78 = tested on: HCC-78
Outline: as §1

NCI-H727 = tested on: NCI-H727
Outline: as §1

NCI-H650 = tested on: NCI-H650
Outline: as §1

NCI-H1355 = tested on: NCI-H1355
Outline: as §1

NCI-H1755 = tested on: NCI-H1755
Outline: as §1

## CCCCCCCCCCCC1=C(O)C(=O)C=C(O)C1=O [Embelin] + Cc1nc(Nc2ncc(C(=O)Nc3c(C)cccc3Cl)s2)cc(N2CCN(CCO)CC2)n1 [Dasatinib] (partner 0.075 µM)
LOU-NH91; first compound 0.08 µM
  relative viability: 0.567
LOU-NH91; first compound 0.8 µM
  relative viability: 0.624
LOU-NH91; first compound 2.53 µM
  relative viability: 0.561
LOU-NH91; first compound 8 µM
  relative viability: 0.531
ABC-1; first compound 0.08 µM
  relative viability: 0.575
ABC-1; first compound 0.8 µM
  relative viability: 0.657
ABC-1; first compound 2.53 µM
  relative viability: 0.528
ABC-1; first compound 8 µM
  relative viability: 0.53
NCI-H2170; first compound 0.08 µM
  relative viability: 0.649
NCI-H2170; first compound 0.8 µM
  relative viability: 0.806
NCI-H2170; first compound 2.53 µM
  relative viability: 0.694
NCI-H2170; first compound 8 µM
  relative viability: 0.533
NCI-H2085; first compound 0.08 µM
  relative viability: 0.253
NCI-H2085; first compound 0.8 µM
  relative viability: 0.246
NCI-H2085; first compound 2.53 µM
  relative viability: 0.227
NCI-H2085; first compound 8 µM
  relative viability: 0.209
NCI-H2023; first compound 0.08 µM
  relative viability: 0.565
NCI-H2023; first compound 0.8 µM
  relative viability: 0.673
NCI-H2023; first compound 2.53 µM
  relative viability: 0.611
NCI-H2023; first compound 8 µM
  relative viability: 0.556
LCLC-97TM1; first compound 0.08 µM
  relative viability: 1.05
LCLC-97TM1; first compound 0.8 µM
  relative viability: 0.668
LCLC-97TM1; first compound 2.53 µM
  relative viability: 0.916
LCLC-97TM1; first compound 8 µM
  relative viability: 0.912
NCI-H23; first compound 0.08 µM
  relative viability: 0.82
NCI-H23; first compound 0.8 µM
  relative viability: 0.755
NCI-H23; first compound 2.53 µM
  relative viability: 1.08
NCI-H23; first compound 8 µM
  relative viability: 0.612
NCI-H2342; first compound 0.08 µM
  relative viability: 0.288
NCI-H2342; first compound 0.8 µM
  relative viability: 0.346
NCI-H2342; first compound 2.53 µM
  relative viability: 0.326
NCI-H2342; first compound 8 µM
  relative viability: 0.342
NCI-H2009; first compound 0.08 µM
  relative viability: 0.342
NCI-H2009; first compound 0.8 µM
  relative viability: 0.487
NCI-H2009; first compound 2.53 µM
  relative viability: 0.243
NCI-H2009; first compound 8 µM
  relative viability: 0.251
NCI-H1437; first compound 0.08 µM
  relative viability: 0.407
NCI-H1437; first compound 0.8 µM
  relative viability: 0.459
NCI-H1437; first compound 2.53 µM
  relative viability: 0.337
NCI-H1437; first compound 8 µM
  relative viability: 0.275
ChaGo-K-1; first compound 0.08 µM
  relative viability: 0.501
ChaGo-K-1; first compound 0.8 µM
  relative viability: 0.576
ChaGo-K-1; first compound 2.53 µM
  relative viability: 0.585
ChaGo-K-1; first compound 8 µM
  relative viability: 0.582
NCI-H1623; first compound 0.08 µM
  relative viability: 0.554
NCI-H1623; first compound 0.8 µM
  relative viability: 0.542
NCI-H1623; first compound 2.53 µM
  relative viability: 0.534
NCI-H1623; first compound 8 µM
  relative viability: 0.555
NCI-H2405; first compound 0.08 µM
  relative viability: 0.238
NCI-H2405; first compound 0.8 µM
  relative viability: 0.24
NCI-H2405; first compound 2.53 µM
  relative viability: 0.178
NCI-H2405; first compound 8 µM
  relative viability: 0.215
UMC-11; first compound 0.08 µM
  relative viability: 0.45
UMC-11; first compound 0.8 µM
  relative viability: 0.48
UMC-11; first compound 2.53 µM
  relative viability: 0.519
UMC-11; first compound 8 µM
  relative viability: 0.437
RERF-LC-KJ; first compound 0.08 µM
  relative viability: 0.82
RERF-LC-KJ; first compound 0.8 µM
  relative viability: 0.983
RERF-LC-KJ; first compound 2.53 µM
  relative viability: 0.81
RERF-LC-KJ; first compound 8 µM
  relative viability: 0.704
HOP-62; first compound 0.08 µM
  relative viability: 0.66
HOP-62; first compound 0.8 µM
  relative viability: 0.776
HOP-62; first compound 2.53 µM
  relative viability: 0.68
HOP-62; first compound 8 µM
  relative viability: 0.654
NCI-H322M; first compound 0.08 µM
  relative viability: 0.26
NCI-H322M; first compound 0.8 µM
  relative viability: 0.263
NCI-H322M; first compound 2.53 µM
  relative viability: 0.261
NCI-H322M; first compound 8 µM
  relative viability: 0.232
NCI-H1792; first compound 0.08 µM
  relative viability: 0.771
NCI-H1792; first compound 0.8 µM
  relative viability: 0.803
NCI-H1792; first compound 2.53 µM
  relative viability: 0.792
NCI-H1792; first compound 8 µM
  relative viability: 0.867
SK-MES-1; first compound 0.08 µM
  relative viability: 0.372
SK-MES-1; first compound 0.8 µM
  relative viability: 0.466
SK-MES-1; first compound 2.53 µM
  relative viability: 0.321
SK-MES-1; first compound 8 µM
  relative viability: 0.361
HCC-78; first compound 0.08 µM
  relative viability: 0.373
HCC-78; first compound 0.8 µM
  relative viability: 0.44
HCC-78; first compound 2.53 µM
  relative viability: 0.353
HCC-78; first compound 8 µM
  relative viability: 0.451
NCI-H727; first compound 0.08 µM
  relative viability: 0.318
NCI-H727; first compound 0.8 µM
  relative viability: 0.411
NCI-H727; first compound 2.53 µM
  relative viability: 0.492
NCI-H727; first compound 8 µM
  relative viability: 0.375
NCI-H650; first compound 0.08 µM
  relative viability: 0.443
NCI-H650; first compound 0.8 µM
  relative viability: 0.485
NCI-H650; first compound 2.53 µM
  relative viability: 0.368
NCI-H650; first compound 8 µM
  relative viability: 0.383
NCI-H1355; first compound 0.08 µM
  relative viability: 0.753
NCI-H1355; first compound 0.8 µM
  relative viability: 0.808
NCI-H1355; first compound 2.53 µM
  relative viability: 0.845
NCI-H1355; first compound 8 µM
  relative viability: 0.586
NCI-H1755; first compound 0.08 µM
  relative viability: 0.368
NCI-H1755; first compound 0.8 µM
  relative viability: 0.49
NCI-H1755; first compound 2.53 µM
  relative viability: 0.379
NCI-H1755; first compound 8 µM
  relative viability: 0.407
